{"source": "patent US11617730B2", "about": "“Pharmaceutical formulation for administering paracetamol by buccal/gingival route” (Unither Pharmaceuticals, priority 2017, dated 2023)", "key": {"[1]": {"experiment": "DOSY 1H-NMR measurement of diffusion coefficients and hydrodynamic radius (Stokes-Einstein)", "format": "physicochemical", "details": "in ethanol; reference samples, 25° C.", "description": "For the purposes of the present invention, “hydrodynamic radius”, or RH, means the radius of a solute in solution, said solute being assumed to be spherical, as defined by the following Stokes-Einstein relation [Edward, J. T. (1970) J. Chem. Educ. 47, 261; Einstein, A. (1905) Annalen Der Physik 17, 549-560; Einstein, A. (1906) Annalen Der Physik 19, 371-381]:\n[formula] • D is the diffusion coefficient of the solute in the solvent (expressed in m^2·s^−1), • kB is the Boltzmann constant, and is kB=1.3806·10^−23 J·K^−1, • T is the temperature of the medium (expressed in K), • ρ is the viscosity of the medium (expressed in Pa·s, or equivalent in kg·s^−1·m^−1), and • RH is expressed in m. […]\nThe sizes of molecules in solution can be estimated by liquid NMR using so-called diffusion experiments to measure the diffusion coefficients of species in solution. The experiment is performed by applying a magnetic field gradient in a given direction, the direction in which the diffusion of particles is measured. […]\nThis table also includes viscosity values obtained from the literature [Khattab, I. S., Bandarkar, F., Fakhree, M. A. A., and Jouyban, A. (2012) Korean J. Chem. Eng. 29, 812-817], the mole fraction of ethanol and the hydrodynamic radius calculated from the Stokes-Einstein equation. The accuracy of the value thus calculated is estimated at ±0.1 Å. […]"}, "[2]": {"experiment": "Stability / pre-stability studies of paracetamol in hydroalcoholic solution", "format": "physicochemical"}}}
{"smiles": "CC(=O)Nc1ccc(O)cc1", "note": "[paracetamol]", "values": [{"measurement": "RH of paracetamol", "setting": "[1]", "result": 4.2, "unit": "Å"}, {"measurement": "Coloration in pre-stability studies", "setting": "[2]; 6 months at 40° C., concentration greater than 115 mg/mL", "result": "appearance of pink coloration"}, {"measurement": "Recrystallization in stability studies", "setting": "[2]; concentration too high, typically above 125 mg/mL", "result": "recrystallizes over time"}]}
